# Reference: ChEMBL document CHEMBL1268854, “A Bisindole Alkaloid with Hedgehog Signal Inhibitory Activity from the Myxomycete Perichaena chrysosperma” (J Nat Prod, 2010)
# Assays:
# [1] = Cytotoxicity against mouse C3H10T1/2 cells after 24 hrs; format: cell-based; settings: C3H 10T1/2, 24 h
# DU-145 = test: Cytotoxicity against human DU145 cells after 24 hrs; format: functional, cell-based; settings: DU-145, 24 h
# [2] = Inhibition of hedgehog signaling pathway in human HaCaT cells assessed as inhibition of GLI1-mediated transcriptional activity; format: cell-based
# PANC-1 = test: Cytotoxicity against human PANC1 cells after 24 hrs; format: functional, cell-based; settings: PANC-1, 24 h
smiles,measurement,setting,value
COC1NC(=O)c2c1c1c3ccccc3[nH]c1c1[nH]c3cc(O)ccc3c21 (centres undefined),IC50,[1],> 14 µM
same,IC50,DU-145,4.2 µM
same,IC50,[2],4.6 µM
same,IC50,PANC-1,5 µM
